Laboratory results as given in ChEMBL document CHEMBL4396916, “Novel potent substituted 4-amino-2-thiopyrimidines as dual VEGFR-2 and BRAF kinase inhibitors” (Eur J Med Chem, 2019).
pIC50: −log10 of the molar value.

Experiments:
ACHN = experiment: Growth inhibition of human ACHN cells at 10 uM incubated for 48 hrs by sulforhodamine B assay relative to control; type: functional; settings: read-out: GI
HCT-116 = experiment: Growth inhibition of human HCT116 cells at 10 uM incubated for 48 hrs by sulforhodamine B assay relative to control; type: functional; settings: HCT-116, 48 h, read-out: GI
SNB-75 = experiment: Growth inhibition of human SNB75 cells at 10 uM incubated for 48 hrs by sulforhodamine B assay relative to control; type: functional; settings: SNB-75, 48 h, read-out: GI
NCI-H226 = experiment: Growth inhibition of human NCI-H226 cells at 10 uM incubated for 48 hrs by sulforhodamine B assay relative to control; type: functional; settings: NCI-H226, 48 h, read-out: GI
HOP-62 = experiment: Growth inhibition of human HOP62 cells at 10 uM incubated for 48 hrs by sulforhodamine B assay relative to control; type: functional; settings: HOP-62, 48 h, read-out: GI
[1] = biological target: Vascular endothelial growth factor receptor 2 (Homo sapiens, UniProt P35968); experiment: Inhibition of human N-terminal GST tagged VEGFR-2 expressed in baculovirus infected Sf9 cells using poly (Glu,Tyr) 4:1 as substrate in presence of ATP by Kinase-Glo luminescence assay
SK-MEL-5 = experiment: Growth inhibition of human SK-MEL-5 cells at 10 uM incubated for 48 hrs by sulforhodamine B assay relative to control; type: functional; settings: SK-MEL-5, 48 h, read-out: GI
RXF 393 = experiment: Growth inhibition of human RXF393 cells at 10 uM incubated for 48 hrs by sulforhodamine B assay relative to control; type: functional; settings: RXF 393, 48 h, read-out: GI
SNB-19 = experiment: Growth inhibition of human SNB19 cells at 10 uM incubated for 48 hrs by sulforhodamine B assay relative to control; type: functional; settings: SNB-19, 48 h, read-out: GI
CAKI-1 = experiment: Growth inhibition of human Caki1 cells at 10 uM incubated for 48 hrs by sulforhodamine B assay relative to control; type: functional; settings: CAKI-1, 48 h, read-out: GI
NCI-H522 = experiment: Growth inhibition of human NCI-H522 cells at 10 uM incubated for 48 hrs by sulforhodamine B assay relative to control; type: functional; settings: NCI-H522, 48 h, read-out: GI
LOX IMVI = experiment: Growth inhibition of human LOXIMVI cells at 10 uM incubated for 48 hrs by sulforhodamine B assay relative to control; type: functional; settings: read-out: GI
UO-31 = experiment: Growth inhibition of human UO31 cells at 10 uM incubated for 48 hrs by sulforhodamine B assay relative to control; type: functional; settings: UO-31, 48 h, read-out: GI
IGROV-1 = experiment: Growth inhibition of human IGROV1 cells at 10 uM incubated for 48 hrs by sulforhodamine B assay relative to control; type: functional; settings: IGROV-1, 48 h, read-out: GI
UACC-62 = experiment: Growth inhibition of human UACC62 cells at 10 uM incubated for 48 hrs by sulforhodamine B assay relative to control; type: functional; settings: UACC-62, 48 h, read-out: GI
K562 = experiment: Growth inhibition of human K562 cells at 10 uM incubated for 48 hrs by sulforhodamine B assay relative to control; type: functional; settings: K562, 48 h, read-out: GI
SF-295 = experiment: Growth inhibition of human SF295 cells at 10 uM incubated for 48 hrs by sulforhodamine B assay relative to control; type: functional; settings: SF-295, 48 h, read-out: GI
CCRF-CEM = experiment: Growth inhibition of human CCRF-CEM cells at 10 uM incubated for 48 hrs by sulforhodamine B assay relative to control; type: functional; settings: read-out: GI
MDA-MB-231 = experiment: Growth inhibition of human MDA-MB-231 cells at 10 uM incubated for 48 hrs by sulforhodamine B assay relative to control; type: functional; settings: MDA-MB-231, 48 h, read-out: GI
T47D [2] = experiment: Growth inhibition of human T47D cells at 10 uM incubated for 48 hrs by sulforhodamine B assay relative to control; type: functional; settings: read-out: GI
MCF7 [3] = experiment: Cytotoxicity against human MCF7 cells expressing VEGFR2 and wild type BRAF measured after 48 hrs by sulforhodamine B assay; type: functional, cell-based; settings: MCF7, 48 h
MDA-MB-468 = experiment: Growth inhibition of human MDA-MB-468 cells at 10 uM incubated for 48 hrs by sulforhodamine B assay relative to control; type: functional; settings: MDA-MB-468, 48 h, read-out: GI
NCI/ADR-RES = experiment: Growth inhibition of human NCI/ADR-RES cells at 10 uM incubated for 48 hrs by sulforhodamine B assay relative to control; type: functional; settings: read-out: GI
MCF7 [4] = experiment: Growth inhibition of human MCF7 cells at 10 uM incubated for 48 hrs by sulforhodamine B assay relative to control; type: functional; settings: MCF7, 48 h, read-out: GI
RPMI-8226 = experiment: Growth inhibition of human RPMI8226 cells at 10 uM incubated for 48 hrs by sulforhodamine B assay relative to control; type: functional; settings: RPMI-8226, 48 h, read-out: GI
EKVX = experiment: Growth inhibition of human EKVX cells at 10 uM incubated for 48 hrs by sulforhodamine B assay relative to control; type: functional; settings: read-out: GI
MOLT-4 = experiment: Growth inhibition of human MOLT4 cells at 10 uM incubated for 48 hrs by sulforhodamine B assay relative to control; type: functional; settings: MOLT-4, 48 h, read-out: GI
SK-OV-3 = experiment: Growth inhibition of human SKOV3 cells at 10 uM incubated for 48 hrs by sulforhodamine B assay relative to control; type: functional; settings: SK-OV-3, 48 h, read-out: GI
HL-60(TB) = experiment: Growth inhibition of human HL-60(TB) cells at 10 uM incubated for 48 hrs by sulforhodamine B assay relative to control; type: functional; settings: HL-60, 48 h, read-out: GI
NCI-H23 = experiment: Growth inhibition of human NCI-H23 cells at 10 uM incubated for 48 hrs by sulforhodamine B assay relative to control; type: functional; settings: NCI-H23, 48 h, read-out: GI
Hs-578T = experiment: Growth inhibition of human Hs578T cells at 10 uM incubated for 48 hrs by sulforhodamine B assay relative to control; type: functional; settings: read-out: GI
A549 = experiment: Growth inhibition of human A549/ATCC cells at 10 uM incubated for 48 hrs by sulforhodamine B assay relative to control; type: functional; settings: A549, 48 h, read-out: GI
T47D [5] = experiment: Cytotoxicity against human T47D cells expressing wild type BRAF measured after 48 hrs by sulforhodamine B assay; type: functional, cell-based
SN12C = experiment: Growth inhibition of human SN12C cells at 10 uM incubated for 48 hrs by sulforhodamine B assay relative to control; type: functional; settings: read-out: GI
PC-3 = experiment: Growth inhibition of human PC3 cells at 10 uM incubated for 48 hrs by sulforhodamine B assay relative to control; type: functional; settings: PC-3, 48 h, read-out: GI
U-251 = experiment: Growth inhibition of human U251 cells at 10 uM incubated for 48 hrs by sulforhodamine B assay relative to control; type: functional; settings: U-251, 48 h, read-out: GI

Chain of Vascular endothelial growth factor receptor 2 (P35968 whole entry): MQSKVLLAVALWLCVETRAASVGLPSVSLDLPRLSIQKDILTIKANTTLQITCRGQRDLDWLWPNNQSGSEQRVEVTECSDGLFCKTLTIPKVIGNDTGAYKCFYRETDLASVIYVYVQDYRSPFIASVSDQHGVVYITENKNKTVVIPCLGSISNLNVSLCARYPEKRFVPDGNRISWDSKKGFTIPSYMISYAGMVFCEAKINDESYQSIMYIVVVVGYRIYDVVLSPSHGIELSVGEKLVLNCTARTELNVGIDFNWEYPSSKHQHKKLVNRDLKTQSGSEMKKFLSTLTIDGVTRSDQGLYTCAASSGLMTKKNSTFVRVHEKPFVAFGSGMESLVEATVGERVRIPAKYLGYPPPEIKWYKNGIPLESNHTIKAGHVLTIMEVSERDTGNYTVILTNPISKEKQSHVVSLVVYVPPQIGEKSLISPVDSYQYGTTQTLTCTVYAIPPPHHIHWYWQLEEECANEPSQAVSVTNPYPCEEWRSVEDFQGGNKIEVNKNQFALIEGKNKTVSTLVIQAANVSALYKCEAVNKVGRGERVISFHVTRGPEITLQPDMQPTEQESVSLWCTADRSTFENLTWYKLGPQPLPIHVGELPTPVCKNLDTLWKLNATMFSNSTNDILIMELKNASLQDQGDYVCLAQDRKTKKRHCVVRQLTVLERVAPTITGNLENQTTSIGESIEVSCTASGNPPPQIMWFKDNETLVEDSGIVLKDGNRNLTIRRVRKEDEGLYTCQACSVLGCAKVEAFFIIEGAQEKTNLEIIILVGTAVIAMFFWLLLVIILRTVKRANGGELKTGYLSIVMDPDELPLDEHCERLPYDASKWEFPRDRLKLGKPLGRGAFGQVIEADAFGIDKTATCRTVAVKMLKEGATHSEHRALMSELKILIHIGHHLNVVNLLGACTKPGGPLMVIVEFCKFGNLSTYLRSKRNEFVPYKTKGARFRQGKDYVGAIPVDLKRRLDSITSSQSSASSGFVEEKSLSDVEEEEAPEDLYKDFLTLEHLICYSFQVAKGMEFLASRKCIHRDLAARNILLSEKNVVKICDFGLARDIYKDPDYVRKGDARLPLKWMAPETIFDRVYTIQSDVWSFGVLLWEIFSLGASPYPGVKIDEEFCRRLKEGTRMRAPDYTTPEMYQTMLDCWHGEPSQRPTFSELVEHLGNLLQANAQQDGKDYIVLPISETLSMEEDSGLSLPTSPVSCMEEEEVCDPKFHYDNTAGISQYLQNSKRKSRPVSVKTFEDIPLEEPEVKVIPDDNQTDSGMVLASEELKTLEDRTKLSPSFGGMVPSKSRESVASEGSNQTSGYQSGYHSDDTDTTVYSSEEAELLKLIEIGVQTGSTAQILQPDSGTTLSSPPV

CC(=O)c1cccc(Nc2ccnc(SCC(=O)c3ccc(C(F)(F)F)cc3)n2)c1
inhibition of growth at 10 µM (ACHN): 19% | inhibition of growth at 10 µM (HCT-116): 28% | inhibition of growth at 10 µM (SNB-75): 32% | inhibition of growth at 10 µM (NCI-H226): 24% | inhibition of growth at 10 µM (HOP-62): 17% | pIC50 [1]: < 5.00 | inhibition of growth at 10 µM (SK-MEL-5): 14% | inhibition of growth at 10 µM (RXF 393): 11% | inhibition of growth at 10 µM (SNB-19): 10% | inhibition of growth at 10 µM (CAKI-1): 42% | inhibition of growth at 10 µM (NCI-H522): 27% | inhibition of growth at 10 µM (LOX IMVI): 13% | inhibition of growth at 10 µM (UO-31): 57% | inhibition of growth at 10 µM (IGROV-1): 44% | inhibition of growth at 10 µM (UACC-62): 29% | inhibition of growth at 10 µM (K562): 29% | inhibition of growth at 10 µM (SF-295): 15% | inhibition of growth at 10 µM (CCRF-CEM): 10% | inhibition of growth at 10 µM (MDA-MB-231): 22% | inhibition of growth at 10 µM (T47D [2]): 37% | pIC50 (MCF7 [3]): 4.55 | inhibition of growth at 10 µM (MDA-MB-468): 16% | inhibition of growth at 10 µM (NCI/ADR-RES): 11% | inhibition of growth at 10 µM (MCF7 [4]): 26% | inhibition of growth at 10 µM (RPMI-8226): 31% | inhibition of growth at 10 µM (EKVX): 28% | inhibition of growth at 10 µM (MOLT-4): 24% | inhibition of growth at 10 µM (SK-OV-3): 21% | inhibition of growth at 10 µM (HL-60(TB)): < 10% | inhibition of growth at 10 µM (NCI-H23): 21% | inhibition of growth at 10 µM (Hs-578T): 11% | inhibition of growth at 10 µM (A549): 12% | pIC50 (T47D [5]): 4.77 | inhibition of growth at 10 µM (SN12C): 17% | inhibition of growth at 10 µM (PC-3): 30% | inhibition of growth at 10 µM (U-251): 12%
